# Experimental data taken from US10039845B2, “Labeled inhibitors of prostate specific membrane antigen (PSMA) biological evaluation, and use of imaging agents” (THE JOHNS HOPKINS UNIVERSITY, priority 2007, dated 2018).
# Key:
# LNCaP (PSMA+) tumor = experiment: In vivo binding specificity (blocking) study, SPECT-CT; parameters: species or system mice; settings: LNCaP tumor bearing animal, PMPA 50 mg/kg (1 mg), images 30-60 min postinjection
# Experimental: SPECT-CT imaging was then performed as described above, with both animals on the scanner gantry.
# PSMA = target: T1, PSMA (Homo sapiens, UniProt Q04609); experiment: NAALADase assay (NAAG hydrolysis, LNCaP cell extracts); format: biochemical
# T1 construct: LNCaP cell extracts were prepared by sonication in NAALADase buffer; endogenous in cells; host or cells: LNCaP cell extract (sonicated in 50 mM Tris pH 7.4, 0.5% Triton X-100)
# T1 sequence (Q04609 whole entry): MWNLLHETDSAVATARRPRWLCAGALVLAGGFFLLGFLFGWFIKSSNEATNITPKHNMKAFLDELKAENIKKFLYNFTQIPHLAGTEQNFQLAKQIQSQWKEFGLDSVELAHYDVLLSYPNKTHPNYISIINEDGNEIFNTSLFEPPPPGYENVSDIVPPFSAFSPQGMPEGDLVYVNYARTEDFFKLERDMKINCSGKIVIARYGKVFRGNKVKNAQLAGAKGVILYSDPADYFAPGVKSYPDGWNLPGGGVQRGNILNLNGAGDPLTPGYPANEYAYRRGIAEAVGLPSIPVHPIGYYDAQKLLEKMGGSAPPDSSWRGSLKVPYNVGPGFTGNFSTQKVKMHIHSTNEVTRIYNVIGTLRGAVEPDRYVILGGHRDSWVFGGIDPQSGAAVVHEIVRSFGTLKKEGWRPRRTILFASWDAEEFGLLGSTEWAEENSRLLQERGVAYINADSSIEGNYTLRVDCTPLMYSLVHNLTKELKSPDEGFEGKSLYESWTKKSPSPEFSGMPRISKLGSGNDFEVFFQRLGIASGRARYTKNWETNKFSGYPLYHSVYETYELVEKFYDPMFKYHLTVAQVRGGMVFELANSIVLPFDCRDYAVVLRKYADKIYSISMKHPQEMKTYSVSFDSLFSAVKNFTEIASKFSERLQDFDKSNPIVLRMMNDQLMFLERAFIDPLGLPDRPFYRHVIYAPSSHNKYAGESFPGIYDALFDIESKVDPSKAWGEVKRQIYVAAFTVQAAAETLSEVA
# Experimental: The relative binding affinities of L1-L7 and ReL1-ReL7, were determined using the N-acetylated-α-linked acidic dipeptidase (NAALADase) assay as previously described.
# NAAG hydrolysis was performed essentially as described previously (Robinson, M. B.; et al. J Biol Chem 1987, 262, 14498-14506; Lupold, S. E.; et al. Cancer Res 2002, 62, 4029-4033.). In short, LNCaP cell extracts were prepared by sonication in NAALADase buffer [50 mM Tris (pH 7.4) and 0.5% Triton X-100]. Cell lysates were incubated with or without inhibitor at 37° C. for 10 minutes. Following the incubation the radiolabeled substrate N-acetyl-L-aspartyl-L-(3,4-^3H)glutamate (NEN Life Science Products, Boston, Mass.) was added to a final concentration of 30 nM at 37° C. for 10-15 min. The reaction was stopped by the addition of an equal volume of ice-cold 100 mM sodium phosphate and 2 mM EDTA. Products were partitioned by AG 1-X8 formate resin (Bio-Rad Laboratories) anion exchange chromatography, eluted with 1 M sodium formate, and quantified by liquid scintillation counting. […] Assays were performed in triplicate with the entire inhibition study being repeated at least once to confirm affinity and mode of inhibition. Data were collected during linear phase of hydrolysis (i.e., <20% cleavage of total substrate). Enzyme inhibitory constants (Ki values) were generated using the Cheng-Prusoff conversion (Cheng, Y.; Prusoff, W. H. Biochem Pharmcol 1973, 22, 3099-3108).
# PSMA+ PC3 PIP cells = experiment: In vitro fluorescence microscopy in PC3 PIP and PC3 flu cells; format: cell-based, human; settings: excitation 494 nm, emission 628 nm, 1 h incubation
# Experimental: Coordination of the bisquinoline moiety of L2 with Re(CO)3 renders this complex fluorescent. Accordingly, microscopy was performed using ReL2 in live cells (FIG. 2). […] The mechanism of internalization of PSMA has been studied previously, however only antibodies and antibody conjugates have been used, rather than small molecules (Rajasekaran, S. A.; et al. Mol Biol Cell 2003, 14, 4835-4845; Moffatt, S.; et al. Gene Ther 2006, 13, 761-772).
# Following fresh preparation of ReL2, 10,000 PC3 PIP and PC3 flu cells were seeded separately into each of four wells of a Lab-Tek II 8-well chamber slide (Fisher Scientific). The cells were cultured as described above and were allowed to attach to the bottom of the wells overnight at 37° C. in 5% CO2 in air. […] The cells were then returned to the incubator for one hour to enable binding. Each well was then carefully washed by removing the supernatant followed by addition of warm culture media for 30 seconds. The wash media was then removed and added to the contents of the well chambers. Dako Cytomation mounting medium was then applied and a glass coverslip was added. The mounting medium was allowed to dry at ambient temperature for 20 min prior to storage of the slide at 4° C. overnight. The cells were then viewed using an Olympus BX61 fluorescence microscope equipped with a Semrock DAPI/FITC/Texas Red triple filter cube.
Compound,blockade of [^99mTc]L1 binding to tumor and renal cortex (LNCaP (PSMA+) tumor),"Ki (PSMA; LNCaP cell extracts, Cheng-Prusoff conversion, read-out: Ki (PSMA inhibitory activity)) [nM]",fold higher PSMA inhibitory activity than ReL1 (PSMA; relative to ReL1) [fold],fluorescent signal in live cells (internalization) (PSMA+ PC3 PIP cells)
"O=C(O)CCC(CP(=O)(O)O)C(=O)O (stereo not shown) [PMPA, 2-(phosphonomethyl)pentanedioic acid]",capable of eliminating binding of [^99mTc]L1,,,
"O=C(O)CCC(NC(=O)NC(CCCCNC(=O)CCCCCCC(=O)NC(CCCCN(Cc1ccc2ccccc2n1)Cc1ccc2ccccc2n1)C(=O)O)C(=O)O)C(=O)O.[Br-].[C-]#[O+].[C-]#[O+].[C-]#[O+].[Re+] (stereo not drawn) [ReL2, Tricarbonyl(2-[3-(5-{7-[5-(bis-quinolin-2-ylmethyl-amino)-1-carboxy-pentylcarbamoyl]-heptanoylamino}-1-carboxy-pentyl)-ureido]-pentanedioic acid) rhenium bromide]",,0.5,20,weak but observable fluorescent signal from within the PSMA+ PC3 PIP cells
